IC50 data for 13 molecules are collected here from patent US11161830B2, “4-pyridone compound or salt thereof, and pharmaceutical composition and formulation including same” (priority 2017, dated 2021).

Like-named read-outs stand apart in the source and are kept apart here.

The subject of assay [1] is HBV (genotype AeUS). As to the kind of experiment: Test Example 2-1: anti-HBV assay in PXB-cells (fresh human hepatocytes). It is filed as cell-based, hepatitis B virus. The following applies: Hepatitis B virus, Hepatocyte, PXB-cells infected with HBV genotype AeUS, culture supernatant on day 32 post infection. As to the method: Using fresh human hepatocytes (PXB-cells, manufactured by PhenixBio Co., Ltd.) collected from a PXB mouse (a chimeric mouse with human hepatocytes), the anti-HBV activity of the representative compounds was evaluated in the following procedure.
(§1) The following was used as a medium:
DMEM (manufactured by Sigma)+0.25 μg/mL insulin (manufactured by Wako)+1% penicillin/streptomycin. (manufactured by Sigma)+20 mmol/L HEPES (manufactured by Sigma)+15 μg/mL L-proline (manufactured by Sigma)+50 nmol/L dexamethasone (manufactured by Sigma)+5 ng/mL EGF (manufactured by Peprotech)+0.1 mmol/L ascorbic acid 2-phosphate (manufactured by Wako)+10% FBS+2% DMSO
Each of the test compounds) was further added to the medium to prepare a test solution containing each of the test compounds at various concentrations.
(1) PXB-cells seeded at a seeding density of 2.1×10^5 cells/cm^2 in a 96-well microliter plate were incubated in a 5% CO2 incubator at 37° C. until a day on which the cells were infected.
(2) HBV (genotype AeUS) derived from a PXB mouse serum was suspended in the medium containing 4% PEG-8000, and added to the plate of (1) at about 10 copies/cell such that the PXB cells were infected (100 μL/well), and the plate was incubated in a 5% CO2 incubator at 37° C. for 1 day.
(3) The culture supernatant on day 1 post infection was removed and the cells were washed three times with DMEM containing 10% FBS and 1% penicillin/streptomycin. Then, the medium was added to the plate (100 μL/well) and the plate was incubated in a 5% CO2 incubator at 37° C. for 1 day.
(4) The culture supernatant on day 2 post infection was removed and the cells were washed three times with DMEM containing 10% FBS and 1% penicillin/streptomycin. Then, the medium was added to the plate (100 μL/well) and the plate was incubated in a 5% CO2 incubator at 37° C. for 5 days.
(5) The culture supernatant on day 7 post infection was removed, the medium was added to the plate (100 μL/well), and the plate was incubated in a 5% CO2 incubator at 37° C. for 5 days.
(6) The culture supernatant on day 12 post infection was removed, the medium was added to the plate (100 μL/well), and the plate was incubated in a 5% CO2 incubator at 37° C. for 5 days.
(7) The culture supernatant on day 17 post infection was removed, the test solution was added to the plate (100 μL/well), and the plate was incubated in a 5% CO2 incubator at 37° C. for 5 days. As a control without the compound added, the medium was added to the plate (100 μL/well) and the plate was incubated in a 5% CO2 incubator at 37° C. for 5 days.
(8) The culture supernatant on day 22 post infection was removed, the test solution was added to the plate (100 μL/well), and the plate was incubated in a 5% CO2 incubator at 37° C. for 5 days. As a control without the compound added, the medium was added to the plate (100 μL/well) and the plate was incubated in a 5% CO2 incubator at 37° C. for 5 days.
(9) The culture supernatant on day 27 post infection was removed, the test solution was added to the plate (100 μL/well), and the plate was incubated in a 5% CO2 incubator at 37° C. for 5 days. As a control without the compound added, the medium was added to the plate (100 μL/well) and the plate was incubated in a 5% CO2 incubator at 37° C. for 5 days.
(10) The culture supernatant on day 32 post infection was collected.
(11) The collected culture supernatant on day 32 post infection was purified with a QIAamp (registered trademark) DNA Blood Mini Kit (manufactured by QIAGEN). The amount of HBV-DNA in the obtained solution was absolutely quantified by a real-time PCR method. In addition, the amount of HBsAg in the culture supernatant was absolutely quantified by chemiluminescent enzyme immunoassay using Lumipulse (registered trademark) HBsAg-HQ (manufactured by Fujirebio Inc.). A relative viral load (%) with respect to a control without the compound added was each calculated. […]

In assay [2] the test system is HBV. As to the kind of experiment: Test Example 1-1: anti-HBV assay in HepG2.2.15 cells (test solution 200 μL/well). It is filed as cell-based, hepatitis B virus. The following applies: culture supernatant. As for the experimental part: Using HepG2.2.15 cells (Proc. Natl. Acad. Sci. USA, 84, 1005-1009, 1987) which have an HBV genome introduced into a hepatoblastoma cell line, HepG2, and persistently produce a virus, the anti-HBV activity of the representative compounds was evaluated in the following procedure.
as §1
DMEM/F-12, GlutaMAX (manufactured by Invitrogen)+5 μg/mL insulin (manufactured by Wako)+1% penicillin/streptomycin (manufactured by Sigma)+10 mmol/L HEPES (manufactured by Sigma)+50 μmol/L hydrocortisone (manufactured by Sigma)+10% FBS
A mixture of a test compound with dimethyl sulfoxide (DMSO) was further added to the medium to obtain a final concentration of DMSO of 0.25% (v/v), and thus, test solutions containing the test compound at various concentrations were prepared. In addition, a test solution obtained by adding DMSO alone to the medium to obtain a final concentration of 0.25% (v/v) was prepared as a control without addition of a drug.
(1) The HepG2.2.15 cells were suspended in the medium to prepare a. HepG2.2.15 cell suspension at 4×10^5 cells/mL. The suspension was seeded in a 96-well microtiter plate (100 μL/well) and the plate was incubated in a 5% CO2 incubator at 37° C. for 2 days.
(2) The culture supernatant was removed and the cells were washed twice with PBS (−) (100 μL/well).
(3) The test solution (200 μL/well) was added to the plate of (2) and the plate was incubated in a 5% CO2 incubator at 37° C. for 4 days.
(4) The culture supernatant was removed, the test solution (200 μL/well) was added again to the plate, and the plate was incubated in a 5% CO2 incubator at 37° C. for 3 days.
(5) The culture supernatant was collected and treated with a mixture of Buffer AL (manufactured by QIAGEN) and Proteinase K (manufactured by Invitrogen). The amount of DNA of HBV (HBV-DNA) in the obtained solution was absolutely quantified by a real-time PCR method. In addition, HBsAg (hepatitis B surface antigen) in the culture supernatant was absolutely quantified by chemiluminescent enzyme immunoassay using Lumipulse (registered trademark) HBsAg-HQ (manufactured by Fujirebio Inc.). The relative viral load (%) of a well with the compound added to a well without the compound added was calculated. An IC50 of the compound was calculated using a FORECAST function (linear regression method) of Microsoft Office Excel 2007 by plotting the logarithm of the concentration against the relative viral load as a real number.
The IC50 of HBV-DNA was defined as a concentration (or a logarithm dilution of the culture supernatant) of the compound, in which the amount of HBV-DNA is reduced by 50% as compared a control without the compound added.
In addition, the IC50 of HBsAg was defined as a concentration (or a logarithm dilution of the culture supernatant) of the compound, in which the amount of HBsAg is reduced by 50% as compared a control without the compound added.

[3] abbreviates: Hepatitis B virus, read-out: IC50 HBV-DNA.
Setting [4] is: Hepatitis B virus, read-out: IC50 HBsAg.

Regarding `COCCN1CCN(c2nc3ccc(-n4cc(C(=O)O)c(=O)cc4-c4ccc(N5CCCC5)cc4)cc3s2)CC1` [Example 3-14, 1-(2-(4-(2-methoxyethyl)piperazin-1-yl)benzo[d]thiazol-6-yl)-4-oxo-6-(4-(pyrrolidin-1-yl)phenyl)-1,4-dihydropyridine-3-carboxylic acid], the IC50 (usually the midpoint of a concentration-inhibition curve) in assay [1] (read-out: IC50 HBV-DNA) is 24 nM; in assay [1] (read-out: IC50 HBsAg), 89 nM.

As to `COCCN(CCOC)c1nc2ccc(-n3cc(C(=O)O)c(=O)cc3-c3ccc(N4CCCC4)c(Br)c3)cc2s1` [Example 5-3, 1-(2-(bis(2-methoxyethyl)amino)benzo[d]thiazol-6-yl)-6-(3-bromo-4-(pyrrolidin-1-yl)phenyl)-4-oxo-1,4-dihydropyridine-3-carboxylic acid], the half-inhibitory concentration (IC50) in assay [1] (read-out: IC50 HBV-DNA) was 25 nM; in assay [1] (read-out: IC50 HBsAg), 52 nM.

As to `COc1cc(-c2cc(=O)c(C(=O)O)cn2-c2ccc3nc(C)sc3c2)ccc1N1CCCC1` [Example 4-1, 6-(3-methoxy-4-(pyrrolidin-1-yl)phenyl-1)-(2-methylbenzo[d]thiazol-6-yl)-4-oxo-1,4-dihydropyridine-3-carboxylic acid], the IC50 in assay [2] (read-out: IC50 HBV-DNA) and in assay [2] (read-out: IC50 HBsAg) was 18 nM throughout.

On to `COCCN(CCOC)c1nc2ccc(-n3cc(C(=O)O)c(=O)cc3-c3ccc(N4CCCC4)cc3)cc2s1` [Example 3-6, 1-(2-(bis(2-methoxyethyl)amino)benzo[d]thiazol-6-yl)-4-oxo-6-(4-(pyrrolidin-1-yl)phenyl)-1,4-dihydropyridine-3-carboxylic acid], for which the IC50 was 3.9 nM in assay [2] (setting [3]) and 3 nM in assay [2] (setting [4]).

On to `O=C(O)c1cn(-c2ccc3nc(N4CCOCC4)sc3c2)c(-c2ccc(N3CCCC3)c(Cl)c2)cc1=O` [Example 6-1, 6-(3-chloro-4-(pyrrolidin-1-yl)phenyl)-1-(2-morpholinebenzo[d]thiazol-6-yl)-4-oxo-1,4-dihydropyridine-3-carboxylic acid], for which the results for the half-maximal inhibitory concentration (IC50) in assay [2] (read-out: IC50 HBV-DNA) and in assay [2] (read-out: IC50 HBsAg) were 10 nM and 3.8 nM, respectively.

For `COc1nc2ccc(-n3cc(C(=O)O)c(=O)cc3-c3ccc(N4CCCC4)cc3)cc2s1` [Example 3-5, 1-(2-methoxybenzo[d]thiazol-6-yl)-4-oxo-6-(4-(pyrrolidin-1-yl)phenyl)-1,4-dihydropyridine-3-carboxylic acid], the half-inhibitory concentration (IC50) in assay [2] (setting [3]) is 4 nM; in assay [2] (setting [4]), 8 nM.

Take `O=C(O)c1cn(-c2ccc3ncsc3c2)c(-c2ccc(-c3ccc(F)cc3)s2)cc1=O` [Example 14, 1-(Benzo[d]thiazol-6-yl)-6-(5-(4-fluorophenyl)thiophen-2-yl)-4-oxo-1,4-dihydropyridine-3-carboxylic acid]: the values for the IC50 in assay [2] (setting [3]) and in assay [2] (setting [4]) were 100 nM and 91 nM, respectively.

As for `O=C(O)c1cn(-c2ccc3nc(NCc4ccccn4)sc3c2)c(-c2ccc(N3CCCC3)cc2)cc1=O` [Example 3-12, 4-oxo-1-(2-((pyridin-2-ylmethyl)amino)benzo[d]thiazol-6-yl)-6-(4-(pyrrolidin-1-yl)phenyl)-1,4-dihydropyridine-3-carboxylic acid], the IC50 in assay [2] (setting [3]) came to 2.9 nM; in assay [2] (setting [4]) it was 2.4 nM.

As to `Cc1nc2ccc(-n3cc(C(=O)O)c(=O)cc3-c3ccc(N(C)C)cc3)cc2s1` [Example 1, 6-(4-(dimethylamino)phenyl)-1-(2-methylbenzo[d]thiazol-6-yl)-4-oxo-1,4-dihydropyridine-3-carboxylic acid], the IC50 in assay [2] (setting [3]) and in assay [2] (setting [4]) was 120 nM in each case.

With `O=C(O)c1cn(-c2ccc3nc(N4CCOCC4)sc3c2)c(-c2ccc(N3CCCC3)c(Br)c2)cc1=O` [Example 5-2, 6-(3-bromo-4-(pyrrolidin-1-yl)phenyl)-1-(2-morpholinobenzo[d]thiazol-6-yl)-4-oxo-1,4-dihydropyridine-3-carboxylic acid], the values for the IC50 in assay [2] (setting [3]) and in assay [2] (setting [4]) were 1.2 nM and 1.6 nM, respectively.

As to `CCN1CCN(c2nc3ccc(-n4cc(C(=O)O)c(=O)cc4-c4ccc(N5CCCC5)cc4)cc3s2)CC1` [Example 3-9, 1-(2-(4-ethylpiperazin-1-yl)benzo[d]thiazol-6-yl)-4-oxo-6-(4-(pyrrolidin-1-yl)phenyl)-1,4-dihydropyridine-3-carboxylic acid], the IC50 is 3.5 nM in assay [2] (setting [3]) and 6 nM in assay [2] (setting [4]).

Turning to `COc1cc(-c2cc(=O)c(C(=O)O)cn2-c2ccc3nc(N4CCOCC4)sc3c2)ccc1N1CCCC1` [Example 4-2, 6-(3-methoxy-4-(pyrrolidin-1-yl)phenyl)-1-(2-morpholinobenzo[d]thiazol-6-yl)-4-oxo-1,4-dihydropyridine-3-carboxylic acid], the results for the IC50 in assay [2] (setting [3]) and in assay [2] (setting [4]) were 10.9 nM and 5.3 nM, respectively.

Regarding `Cc1nc2ccc(-n3cc(C(=O)O)c(=O)cc3-c3ccc(N4CC[C@@H](OCc5ccc(F)cc5)C4)cc3)cc2s1` [Example 8, (R)-6-(4-(3-((4-Fluorobenzyl)oxy)pyrrolidin-1-yl)phenyl)-1-(2-methylbenzo[d]thiazol-6-yl)-4-oxo-1,4-dihydropyridine-3-carboxylic acid], the concentration for half-maximal inhibition (IC50) is 20 nM in assay [2] (setting [3]) and 19 nM in assay [2] (setting [4]).
